Data as given in patent EP1519709B1, “NOVEL COSMETIC APPLICATIONS OF POLYPHENOLS AND DERIVATIVES THEREOF” (Caudalie, priority 2002, dated 2004).
Like-named read-outs stand apart in the source and are kept apart here.

Biological target: tyrosinase (enzyme EC 1.14.18,1, issue de champignon)
Assay: Tyrosinase inhibition test (L-dopa to dopachrome, read at 475 nm)
Type: biochemical
Conditions: for IC50: read-out: CI50 (the source's name)
Experimental: Mélange A : l'échantillon à tester à différentes concentrations (200 μL), ainsi qu'un "contrôle" (tampon phosphate, pH 6,5), sont incubés pendant 30 minutes à 37°C en présence de tyrosinase (enzyme EC 1.14.18,1, issue de champignon; 200μL, 300 U/mL). Mélange B : 200 μL de L-dopa (2,5 mM) sont additionnés à 400 μL de tampon phosphate (pH 6,5). Après les 30 minutes d'incubation, le mélange A est ajouté au mélange B et la dopachrome produite est mesurée à 475 nm au bout d'une minute […].

[1] = mushroom tyrosinase 300 U/mL, 30 min preincubation at 37°C, phosphate buffer pH 6,5, L-dopa 2,5 mM, dopachrome at 475 nm, mean with spread, n in cell

Oc1ccc(C=Cc2cc(O)cc(O)c2)cc1 [Bloc II, resvératrol, reference compound]
IC50 (bounds stated in running text for the tyrosinase inhibition tests under the conditions of the examples): > 60 µM

Oc1ccc(/C=C/c2cc(O)cc3c2[C@@H](c2cc(O)cc(O)c2)[C@H](c2ccc(O)cc2)O3)cc1 [Bloc VIII, ε-viniférine]
IC50 of the dimer relative to that of the monomer (resvératrol) (tyrosinase inhibition test): < 10 fois

Oc1ccc(C=Cc2cc(O)cc(O)c2)cc1 [II]
IC50 [1]: 61.4 µM

Oc1ccc(C=Cc2cc(O)cc3c2C(c2cc(O)cc(O)c2)C(c2ccc(O)cc2)O3)cc1 (stereo not shown) [VIII]
IC50 [1]: 10.4 µM
